Measured values as given in patent publication US6506580B1, “Splice variants for human 5-HT4 serotonin receptor and their applications, in particular for screening” (Institut National de la Sante et de la Recherche Medicale …, priority 1997, dated 2003).

Legend:
[1] = test system: cells expressing the isoforms of the receptor 5-HT4; test: cAMP formation in transiently transfected COS-7 cells, statement for all isoforms together; type: cell-based, human; conditions: preincubation with 1 μM prior to 5-HT, COS-7 cells expressing the isoforms
Procedure: The entire coding region of the cDNAs of 5-HT4(a), 5-HT4(b), 5-HT4(c) and 5-T4(d) was subcloned into a mammalian expression vector pRC/CMV (Invitrogen, Carlsbad, Calif.). The transfections were carried out using polyethyleneimine (PEI) as described in Boussif et al. (1995). The cells were transfected using a mixture of DNA and of PEI in a ratio of 20 μmol of PEI/mg of DNA in 0.9% NaCl. […] The cells transfected with the receptor 5-HT4 cDNA constructs were compared with the “blank”-transfected cells, which were exposed to the unmodified pRC/CMV plasmid. […] The reaction was stopped by aspiration of the medium and addition of 500 μl of ice-cold ethanol. After one hour at room temperature, the cells were scraped, and everything was collected and freeze-dried. The pellet was resuspended in 350 μl of PBS and centrifuged for 5 min at 300 g. The cAMP was quantified in the supernatant using a radioimmunological assay (E.R.I.A. assay kit from Pasteur Diagnostics 79830). Student's t tests were carried out using the program Quick TEst.

receptor 5-HT4(c) = receptor 5-HT4(c) (Homo sapiens, UniProt Q13639); test: cAMP formation in transiently transfected COS-7 cells; type: cell-based; design: The entire coding region of the cDNAs of 5-HT4(a), 5-HT4(b), 5-HT4(c) and 5-T4(d) was subcloned; expressed in transfected cells; host or cells: COS-7 cells, transient, pRC/CMV vector; cDNA amplified from human brain and ileum RNA; conditions: for decrease of the basal cAMP values: 1 μM
Procedure: The entire coding region of the cDNAs of 5-HT4(a), 5-HT4(b), 5-HT4(c) and 5-T4(d) was subcloned into a mammalian expression vector pRC/CMV (Invitrogen, Carlsbad, Calif.). The transfections were carried out using polyethyleneimine (PEI) as described in Boussif et al. (1995). The cells were transfected using a mixture of DNA and of PEI in a ratio of 20 μmol of PEI/mg of DNA in 0.9% NaCl. For the radioligand binding assays, the COS-7 cells were seeded into culture flasks of 1.5×10^4 mm^2 one day before the transfection, at a density of 1×10^7 cells/flask, incubated for six hours with plasmid DNA (150 μg/flask) and collected 48 hours after transfection. For the measurement of cAMP formation, the COS-7 cells were seeded onto twelve-well plates one day before transfection, at a density of 5×10^5 cells/well, incubated for six hours with plasmid DNA (4 to 8 μg/well according to the experiments) and assayed 24 hours after the transfection. The cells transfected with the receptor 5-HT4 cDNA constructs were compared with the “blank”-transfected cells, which were exposed to the unmodified pRC/CMV plasmid.
To measure intracellular cAMP accumulation, the transiently transfected COS-7 cells were incubated, 24 hours after transfection, in Dulbecco's modified Eagle medium (DMEM) containing 5 mM theophylline, 10 mM HEPES and 10 μM pargyline for 15 minutes at 37° C., in the presence of 5% CO2. […] The reaction was stopped by aspiration of the medium and addition of 500 μl of ice-cold ethanol. After one hour at room temperature, the cells were scraped, and everything was collected and freeze-dried. The pellet was resuspended in 350 μl of PBS and centrifuged for 5 min at 300 g. The cAMP was quantified in the supernatant using a radioimmunological assay (E.R.I.A. assay kit from Pasteur Diagnostics 79830). Student's t tests were carried out using the program Quick TEst.
ML10375 is capable of reducing the cAMP levels in the cells expressing the 5-HT4(c) and 5-HT4(d) isoforms in the absence of any stimulation of the receptor by 5-HT4 agonists. To test the hypothesis that ML10375 may constitute a reverse agonist for the human receptor 5-HT4, the 5-HT4(c) isoform was overexpressed in COS-7 cells in order to increase the frequency of the spontaneously active state of the receptor. The COS-7 cells were transfected with 4 to 8 μg of plasmid DNA per well in order to obtain an increase in the expression levels of the receptor 5-HT4(c). […] (FIG. 6B).

receptor 5-HT4(d) = receptor 5-HT4(d) (Homo sapiens, UniProt Q13639); test: as above; type: cell-based; design: The entire coding region of the cDNAs of 5-HT4(a), 5-HT4(b), 5-HT4(c) and 5-T4(d) was subcloned; expressed in transfected cells; host or cells: COS-7 cells, transient, pRC/CMV vector; cDNA amplified from human brain and ileum RNA; conditions: COS-7, 1 μM, no agonist
Procedure: The entire coding region of the cDNAs of 5-HT4(a), 5-HT4(b), 5-HT4(c) and 5-T4(d) was subcloned into a mammalian expression vector pRC/CMV (Invitrogen, Carlsbad, Calif.). The transfections were carried out using polyethyleneimine (PEI) as described in Boussif et al. (1995). The cells were transfected using a mixture of DNA and of PEI in a ratio of 20 μmol of PEI/mg of DNA in 0.9% NaCl. For the radioligand binding assays, the COS-7 cells were seeded into culture flasks of 1.5×10^4 mm^2 one day before the transfection, at a density of 1×10^7 cells/flask, incubated for six hours with plasmid DNA (150 μg/flask) and collected 48 hours after transfection. For the measurement of cAMP formation, the COS-7 cells were seeded onto twelve-well plates one day before transfection, at a density of 5×10^5 cells/well, incubated for six hours with plasmid DNA (4 to 8 μg/well according to the experiments) and assayed 24 hours after the transfection. […]
To measure intracellular cAMP accumulation, the transiently transfected COS-7 cells were incubated, 24 hours after transfection, in Dulbecco's modified Eagle medium (DMEM) containing 5 mM theophylline, 10 mM HEPES and 10 μM pargyline for 15 minutes at 37° C., in the presence of 5% CO2. […] The cAMP was quantified in the supernatant using a radioimmunological assay (E.R.I.A. assay kit from Pasteur Diagnostics 79830). […]

receptor 5-HT4(c), sequence (Q13639 1-380 isoform Q13639-4): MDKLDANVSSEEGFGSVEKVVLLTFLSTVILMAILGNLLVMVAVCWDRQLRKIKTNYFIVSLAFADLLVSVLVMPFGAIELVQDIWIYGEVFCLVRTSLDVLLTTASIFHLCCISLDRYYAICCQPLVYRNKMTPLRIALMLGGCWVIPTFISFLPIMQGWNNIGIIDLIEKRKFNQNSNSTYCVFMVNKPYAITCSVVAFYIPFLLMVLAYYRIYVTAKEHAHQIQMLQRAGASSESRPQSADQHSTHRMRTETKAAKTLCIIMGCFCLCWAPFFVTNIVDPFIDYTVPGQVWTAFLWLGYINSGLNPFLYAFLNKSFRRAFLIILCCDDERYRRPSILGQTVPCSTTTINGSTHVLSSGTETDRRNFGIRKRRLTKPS
receptor 5-HT4(d), sequence (Q13639 1-360 isoform Q13639-3): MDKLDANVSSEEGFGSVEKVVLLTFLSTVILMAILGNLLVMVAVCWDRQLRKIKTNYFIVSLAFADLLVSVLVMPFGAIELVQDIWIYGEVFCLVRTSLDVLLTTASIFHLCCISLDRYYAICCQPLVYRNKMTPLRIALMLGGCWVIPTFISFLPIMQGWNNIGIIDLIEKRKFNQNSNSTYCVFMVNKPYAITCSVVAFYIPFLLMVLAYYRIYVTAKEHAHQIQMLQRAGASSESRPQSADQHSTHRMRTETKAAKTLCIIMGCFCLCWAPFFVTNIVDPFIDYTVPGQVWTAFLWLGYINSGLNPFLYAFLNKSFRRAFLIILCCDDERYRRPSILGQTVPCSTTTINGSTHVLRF

antagonism of the stimulatory effect of 5-HT (1 μM) on the basal cAMP (receptor 5-HT4(c); 4 μg of plasmid DNA, preincubation with 1 μM): antagonized | effect of PTX treatment on the ML10375-induced reduction in basal cAMP (receptor 5-HT4(c); 6 μg of plasmid DNA, ML10375 1 μM, PTX 100 ng/ml, 16-hour preincubation): did not significantly modify | decrease in the basal cAMP level in the presence of 1 μM 5-HT (receptor 5-HT4(c); 8 μg of plasmid DNA, preincubation with 1 μM): 47% | reduction of the basal cAMP levels (receptor 5-HT4(c); COS-7, 1 μM, no agonist): 21% | decrease of the basal cAMP values (receptor 5-HT4(c); COS-7 transfected with 4 μg of plasmid DNA): 24% | decrease of the basal cAMP values (receptor 5-HT4(c); COS-7 transfected with 8 μg of plasmid DNA): 62% | reduction of the basal cAMP levels (receptor 5-HT4(d)): 24%
SMILES: COc1cc(N)c(Cl)cc1C(=O)OCCN1C[C@H](C)C[C@H](C)C1 [ML10375, 2-(cis-3,5-dimethyl-piperidino)ethyl 4-amino-5-chloro-2-methoxybenzoate]
antagonism of the capacity of 5-HT (1 μM) to increase basal cAMP levels [1]: antagonizes
